Test results from paper PMC12567248 (Pharmaceutics, 2025).
Like-named read-outs stand apart in the source and are kept apart here.

What was measured:
[1] = In vitro drug release study, sample and separation method, with release model fitting; assay type: physicochemical; conditions: 37.5 °C
Method: The release media used were ultrapure water, 0.1 N phosphate-buffered saline (PBS) pH 7.4 for simulated blood pH, PBS pH 6.8 for simulated intestinal fluid, and 0.1 N HCl pH 2.0 for simulated gastric fluid. […] The setup was stirred at 75 rpm at 37.5 ± 0.5 °C. […] A fresh amount of the media was used to compensate for the amount of the release media taken at every time point. The aliquots were centrifuged at 5000 rpm for 10 min. The supernatant liquid was stored for syringic acid quantification using HPLC analysis, while the pellets were returned to the setup. The cumulative amount of syringic acid released from the MIL-100(Fe) was utilized to predict and correlate the behavior of the in vitro release. The experimental data were fitted to five predictable models: zero-order, first-order, Higuchi, Korsmeyer–Peppas, and Hixson–Crowell models. Data fitting was performed by linear regression using Microsoft Excel. The correlation coefficient (r^2) was utilized as a criterion for selecting the best model that describes the release profile in the three media. An r^2 value close to 1 signifies the best correlation.

[2] = cited from earlier work
Male Sprague Dawley Rats = experiment: Acute oral toxicity, OECD procedure 423; conditions: rat, in vivo
Method: Acute oral toxicity was analyzed in accordance with the OECD guidelines for testing chemical compounds using the acute toxic class method (OECD procedure 423). Prior to dosing, 1 mL of the blood was extracted from the test animals (Male Sprague Dawley Rats, 200–250 g) using the tail vein method and was submitted for alanine aminotransferase (ALT), aspartate aminotransferase (AST), and blood urea nitrogen (BUN), and creatinine level determinations for signs of liver and kidney damages, respectively. […] Since no test animals were recorded to show any signs of toxicity or death, an additional three test animals were given the same dose. […] After the 14 days of observation, the test animals were sedated using Zoletil 50 (50 mg tiletamine base, 50 mg zolazepam base, and 57.7 mg mannitol per mL) at a dose of 50 mg kg^−1 prior to blood extraction using the cardiac puncture method. The animals were euthanized using a carbon dioxide chamber. The blood samples were analyzed for liver and kidney functions. The major organs, such as the liver and kidneys of the test animals, were harvested for tissue mounting and histopathological analysis.

[3] = Tissue distribution of syringic acid in liver and kidney; assay type: in vivo, Sprague Dawley rats; conditions: for Cmax / Tmax / half-life: Sprague Dawley, rat; for AUC0–72 / AUC0–∞: 100 mg kg^−1 syringic acid or equivalent amount in SYA@MIL-100(Fe)
Method: (§1) The reduction in the dosing for the intraperitoneal route is to prevent abdominal distress in the test animal post-administration.
After the blood collection from the test animals, the animals were euthanized, and the organs, such as the liver and kidneys, were taken. The organs were pat-dried and weighed to determine the amount of NSS to be used for homogenization (1 mL of NSS per 700 mg of organ). The organs were homogenized and mixed with equal amounts of absolute ethanol. The mixture was centrifuged at 5000 rpm for 10 min. The serum samples were supplemented with an equal amount of absolute ethanol to facilitate the precipitation of proteins. This procedure was performed until no precipitation occurred. The supernatant was allowed to dry under reduced pressure before HPLC analysis.
(§2) Samples were prepared using the mobile phase consisting of 80:20 water with 0.1% acetic acid: methanol. HPLC analysis was performed using a linear gradient elution at a flow rate of 1.0 mL min^−1. The gradient program started at 80:20 (water with 0.1% acetic acid: methanol) and linearly progressed to 40:60 over 10 min. The column oven temperature was maintained at 30 °C. Detection was carried out using a PDA detector set at 218 nm.

[4] = rabbits, printed as administered intravenously; cited from earlier work
[5] = Oral and intraperitoneal bioavailability, syringic acid in blood; assay type: in vivo, Sprague Dawley rats; conditions: Sprague Dawley, rat, serum; for AUC(0-t): read-out: AUC0–72 (converted)
Method: as §1
After the given time points, the test animals were sedated using Zoletil 50 (50 mg tiletamine base, 50 mg zolazepam base, and 57.7 mg mannitol per mL) at a dose of […] before blood extraction using the cardiac puncture method. The blood was allowed to clot and centrifuged at 4000 rpm at 4 °C for 5 min to obtain the serum. The sera were mixed with an equal amount of methanol to precipitate proteins and centrifuged again to obtain the deproteinized sera. The procedure was repeated until no precipitation with methanol occurred. The protein-free sera were dried under reduced pressure for prior analysis using HPLC.
as §2

With COc1cc(C(=O)O)cc(OC)c1O [Syringic Acid, 3,5-Dimethoxy-4-hydroxybenzoic acid] the “cumulative release of syringic acid” value ([1]; 0.1 N HCl, after 30 h) was 110.99%, the “cumulative release of syringic acid” value ([1]; PBS pH 6.8, after 30 h) was 110.93% and the “cumulative release of syringic acid” value ([1]; PBS pH 7.4, after 30 h) was 117.55%. The “cumulative release of syringic acid” value ([1]; water, after 30 h) was 94.67%, the Cmax [2] was 4500 ± 40 ng/mL and the Tmax [2] was 8 min. For the same compound, the area under the curve [2] was 2010 ± 48.7 ng·h/mL, the BUN before administration (Male Sprague Dawley Rats) was 14.71 ± 0.51 mg per dL and the SGOT before administration (Male Sprague Dawley Rats) was 337.30 ± 34.87 units per liter. The SGPT before administration (Male Sprague Dawley Rats) was 87.96 ± 14.9 units per liter, the “serum creatinine before administration” value (Male Sprague Dawley Rats) was 0.58 ± 0.01 mg per dL and the Cmax ([3]; 100 mg kg^−1, kidney, oral, read-out: maximum concentration (Cmax)) was 105000 ± 9790 ng/g. The Cmax ([3]; 100 mg kg^−1, liver, oral) was 163000 ng/g, the Cmax ([3]; ip, 25 mg kg^−1, kidney, intraperitoneal, read-out: Cmax) was 218000 ± 8730 ng/g and the Cmax ([3]; ip, 25 mg kg^−1, liver, intraperitoneal, read-out: Cmax) was 40100 ± 560 ng/g. It also gave a Tmax ([3]; kidney, ip, 25 mg kg^−1) of 0.402 h, a half-life ([3]; kidney, ip, 25 mg kg^−1) of 80.1 ± 54.5 h and a Tmax ([3]; kidney, po, 100 mg/kg) of 0.47 h. The half-life ([3]; kidney, po, 100 mg/kg) was 0.626 ± 0.0782 h, the Cmax ([3]; kidney, po, 100 mg/kg, read-out: Cmax) was 105000 ± 9790 ng/g and the Tmax ([3]; liver, ip, 25 mg kg^−1) was 0.412 h. For the same compound, the half-life ([3]; liver, ip, 25 mg kg^−1) was 30.9 ± 18.4 h, the Tmax ([3]; liver, po, 100 mg/kg) was 8.6 h and the half-life ([3]; liver, po, 100 mg/kg) was 38.1 ± 13.5 h. The Cmax ([3]; liver, po, 100 mg/kg, read-out: Cmax) was 16300 ± 3540 ng/g, the “AUC0–72” value ([3]; kidney, oral) was 77,103.33 ± 2531.03 μg min g^−1 and the “AUC0–∞” value ([3]; kidney, oral) was 78,035.27 ± 2458.81 μg min g^−1. For the same compound, the “AUC0–72” value ([3]; liver, oral) was 32,000.33 ± 3544.16 μg min g^−1, the “AUC0–∞” value ([3]; liver, oral) was 47,401.91 ± 8515.77 μg min g^−1 and the absolute bioavailability [4] was 86.27%. For the same compound, the Tmax ([5]; ip, 25 mg kg^−1) was 0.933 h, the half-life ([5]; ip, 25 mg kg^−1) was 16.7 ± 6.83 h and the AUC(0-t) ([5]; ip, 25 mg kg^−1) was 72800 ng·h/mL. For the same compound, the half-life ([5]; po, 100 mg/kg) was 1.98 ± 0.513 h and the AUC(0-t) ([5]; po, 100 mg/kg) was 23600 ng·h/mL.
